Reference: article PMC10364322, “Evaluation of chronic drug-induced electrophysiological and cytotoxic effects using human-induced pluripotent stem cell-derived cardiomyocytes (hiPSC-CMs)” (Frontiers in Pharmacology, 2023)
Read-outs that look alike come from different tables or passages of the source.

Tested on: hiPSC-CMs (iCell-Cardiomyocytes^2)
Summary of the method: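 Monolayers of hiPSC-CMs on fibronectin-coated MEA plates, 50 K/well, kept at 37°C, 5% CO2; compounds added in 0.1% final DMSO after 5-min baseline. Field potential and impedance parameters expressed as mean ± SD percent change from baseline; arrhythmic events noted; cytotoxicity fluorescence normalized to DMSO, Kruskal-Wallis.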

Compound: N=C(N)c1ccc(OCCCCCOc2ccc(C(=N)N)cc2)cc1 [Pentamidine]
- BR (beating rate), % change from baseline (0.1 µM, 2h): -1±2%
- Beating below threshold, number of observations/total well numbers (0.1 µM, 2h): 0/6
- Cessation of beating, number of observations/total well numbers (0.1 µM, 2h): 0/6
- EAD, number of observations/total well numbers (0.1 µM, 2h): 0/6
- FPD (field-potential duration), % change from baseline (0.1 µM, 2h): 2.6±1.2%
- FPDc (field-potential duration corrected by beat-rate), % change from baseline (0.1 µM, 2h): 2.2±1.4%
- Flat T-wave-like, number of observations/total well numbers (0.1 µM, 2h): 0/6
- BR (beating rate), % change from baseline (0.1 µM, 24h): 2±2%
- Beating below threshold, number of observations/total well numbers (0.1 µM, 24h): 0/6
- Cessation of beating, number of observations/total well numbers (0.1 µM, 24h): 0/6
- EAD, number of observations/total well numbers (0.1 µM, 24h): 0/6
- FPD (field-potential duration), % change from baseline (0.1 µM, 24h): 2±3.4%
- FPDc (field-potential duration corrected by beat-rate), % change from baseline (0.1 µM, 24h): 2.8±3.1%
- Flat T-wave-like, number of observations/total well numbers (0.1 µM, 24h): 0/6
- BR (beating rate), % change from baseline (0.1 µM, 48h): -4±3%
- Beating below threshold, number of observations/total well numbers (0.1 µM, 48h): 0/6
- Cessation of beating, number of observations/total well numbers (0.1 µM, 48h): 0/6
- EAD, number of observations/total well numbers (0.1 µM, 48h): 0/6
- FPD (field-potential duration), % change from baseline (0.1 µM, 48h): 7.3±1.7%
- FPDc (field-potential duration corrected by beat-rate), % change from baseline (0.1 µM, 48h): 5.7±2%
- Flat T-wave-like, number of observations/total well numbers (0.1 µM, 48h): 0/6
- BR (beating rate), % change from baseline (0.1 µM, 72h): -6±3%
- Beating below threshold, number of observations/total well numbers (0.1 µM, 72h): 0/6
- Cessation of beating, number of observations/total well numbers (0.1 µM, 72h): 0/6
- EAD, number of observations/total well numbers (0.1 µM, 72h): 0/6
- FPD (field-potential duration), % change from baseline (0.1 µM, 72h): 4.9±2.5%
- FPDc (field-potential duration corrected by beat-rate), % change from baseline (0.1 µM, 72h): 3±2.9%
- Flat T-wave-like, number of observations/total well numbers (0.1 µM, 72h): 0/6
- BR (beating rate), % change from baseline (0.1 µM, 96h): -13±3%
- Beating below threshold, number of observations/total well numbers (0.1 µM, 96h): 0/6
- Cessation of beating, number of observations/total well numbers (0.1 µM, 96h): 0/6
- EAD, number of observations/total well numbers (0.1 µM, 96h): 0/6
- FPD (field-potential duration), % change from baseline (0.1 µM, 96h): 9.2±3.1%
- FPDc (field-potential duration corrected by beat-rate), % change from baseline (0.1 µM, 96h): 4.3±2.8%
- Flat T-wave-like, number of observations/total well numbers (0.1 µM, 96h): 0/6
- BR (beating rate), % change from baseline (0.3 µM, 2h): -4±4%
- Beating below threshold, number of observations/total well numbers (0.3 µM, 2h): 0/5
- Cessation of beating, number of observations/total well numbers (0.3 µM, 2h): 0/5
- EAD, number of observations/total well numbers (0.3 µM, 2h): 0/5
- FPD (field-potential duration), % change from baseline (0.3 µM, 2h): 9.7±6.7 %
- FPDc (field-potential duration corrected by beat-rate), % change from baseline (0.3 µM, 2h): 8±7.4%
- Flat T-wave-like, number of observations/total well numbers (0.3 µM, 2h): 0/5
- BR (beating rate), % change from baseline (0.3 µM, 24h): 0±3%
- Beating below threshold, number of observations/total well numbers (0.3 µM, 24h): 0/5
- Cessation of beating, number of observations/total well numbers (0.3 µM, 24h): 0/5
- EAD, number of observations/total well numbers (0.3 µM, 24h): 0/5
- FPD (field-potential duration), % change from baseline (0.3 µM, 24h): 4.6±3.3%
- FPDc (field-potential duration corrected by beat-rate), % change from baseline (0.3 µM, 24h): 4.5±3.1%
- Flat T-wave-like, number of observations/total well numbers (0.3 µM, 24h): 0/5
- BR (beating rate), % change from baseline (0.3 µM, 48h): -2±4%
- Beating below threshold, number of observations/total well numbers (0.3 µM, 48h): 0/5
- Cessation of beating, number of observations/total well numbers (0.3 µM, 48h): 0/5
- EAD, number of observations/total well numbers (0.3 µM, 48h): 0/5
- FPD (field-potential duration), % change from baseline (0.3 µM, 48h): 4.9±2.6%
- FPDc (field-potential duration corrected by beat-rate), % change from baseline (0.3 µM, 48h): 4.1±2%
- Flat T-wave-like, number of observations/total well numbers (0.3 µM, 48h): 0/5
- BR (beating rate), % change from baseline (0.3 µM, 72h): -11±4%
- Beating below threshold, number of observations/total well numbers (0.3 µM, 72h): 0/5
- Cessation of beating, number of observations/total well numbers (0.3 µM, 72h): 0/5
- EAD, number of observations/total well numbers (0.3 µM, 72h): 0/5
- FPD (field-potential duration), % change from baseline (0.3 µM, 72h): 10.5±2.1%
- FPDc (field-potential duration corrected by beat-rate), % change from baseline (0.3 µM, 72h): 6.4±2.9%
- Flat T-wave-like, number of observations/total well numbers (0.3 µM, 72h): 0/5
- BR (beating rate), % change from baseline (0.3 µM, 96h): -20±5%
- Beating below threshold, number of observations/total well numbers (0.3 µM, 96h): 0/5
- Cessation of beating, number of observations/total well numbers (0.3 µM, 96h): 0/5
- EAD, number of observations/total well numbers (0.3 µM, 96h): 0/5
- FPD (field-potential duration), % change from baseline (0.3 µM, 96h): 17.7±1.7%
- FPDc (field-potential duration corrected by beat-rate), % change from baseline (0.3 µM, 96h): 9.3±1.9%
- Flat T-wave-like, number of observations/total well numbers (0.3 µM, 96h): 0/5
- time point from which physiologically relevant prolongation of FPD and FPDc was observed (1 µM): 48 h
- BR (beating rate), % change from baseline (1 µM, 2h): -3±3%
- Beating below threshold, number of observations/total well numbers (1 µM, 2h): 0/6
- Cessation of beating, number of observations/total well numbers (1 µM, 2h): 0/6
- EAD, number of observations/total well numbers (1 µM, 2h): 0/6
- FPD (field-potential duration), % change from baseline (1 µM, 2h): 3.6±1.6%
- FPDc (field-potential duration corrected by beat-rate), % change from baseline (1 µM, 2h): 2.5±1.7%
- Flat T-wave-like, number of observations/total well numbers (1 µM, 2h): 0/6
- BR (beating rate), % change from baseline (1 µM, 24h): -7±3%
- Beating below threshold, number of observations/total well numbers (1 µM, 24h): 0/6
- Cessation of beating, number of observations/total well numbers (1 µM, 24h): 0/6
- EAD, number of observations/total well numbers (1 µM, 24h): 0/6
- FPD (field-potential duration), % change from baseline (1 µM, 24h): 8±1%
- FPDc (field-potential duration corrected by beat-rate), % change from baseline (1 µM, 24h): 5.5±1.6%
- Flat T-wave-like, number of observations/total well numbers (1 µM, 24h): 0/6
- BR (beating rate), % change from baseline (1 µM, 48h): -16±3 %
- Beating below threshold, number of observations/total well numbers (1 µM, 48h): 0/6
- Cessation of beating, number of observations/total well numbers (1 µM, 48h): 0/6
- EAD, number of observations/total well numbers (1 µM, 48h): 0/6
- FPD (field-potential duration), % change from baseline (1 µM, 48h): 21.1±3.4 %
- FPDc (field-potential duration corrected by beat-rate), % change from baseline (1 µM, 48h): 14.3±2.3 %
- Flat T-wave-like, number of observations/total well numbers (1 µM, 48h): 0/6
- BR (beating rate), % change from baseline (1 µM, 72h): -30±2 %
- Beating below threshold, number of observations/total well numbers (1 µM, 72h): 0/6
- Cessation of beating, number of observations/total well numbers (1 µM, 72h): 0/6
- EAD, number of observations/total well numbers (1 µM, 72h): 0/6
- FPD (field-potential duration), % change from baseline (1 µM, 72h): 54.7±5.4 %
- FPDc (field-potential duration corrected by beat-rate), % change from baseline (1 µM, 72h): 37.5±4.3 %
- Flat T-wave-like, number of observations/total well numbers (1 µM, 72h): 0/6
- BR (beating rate), % change from baseline (1 µM, 96h): -30±5 %
- Beating below threshold, number of observations/total well numbers (1 µM, 96h): 0/6
- Cessation of beating, number of observations/total well numbers (1 µM, 96h): 0/6
- EAD, number of observations/total well numbers (1 µM, 96h): 0/6
- FPD (field-potential duration), % change from baseline (1 µM, 96h): 71.5±10.4 %
- FPDc (field-potential duration corrected by beat-rate), % change from baseline (1 µM, 96h): 52.5±8.8 %
- Flat T-wave-like, number of observations/total well numbers (1 µM, 96h): 0/6
- time point from which physiologically relevant prolongation of FPD and FPDc was observed (3 µM): 24 h
- BR (beating rate), % change from baseline (3 µM, 72h): -54±5 %
- Beating below threshold, number of observations/total well numbers (3 µM, 72h): 0/6
- Cessation of beating, number of observations/total well numbers (3 µM, 72h): 3/6
- EAD, number of observations/total well numbers (3 µM, 72h): 2/6
- FPD (field-potential duration), % change from baseline (3 µM, 72h): 224.5±68 %
- FPDc (field-potential duration corrected by beat-rate), % change from baseline (3 µM, 72h): 156.4±52.5 %
- Flat T-wave-like, number of observations/total well numbers (3 µM, 72h): 1/6
- cessation of beating, wells/total wells (3 µM, 72h): 3/6
- Beating below threshold, number of observations/total well numbers (3 µM, 96h): 1/6
- Cessation of beating, number of observations/total well numbers (3 µM, 96h): 5/6
- EAD, number of observations/total well numbers (3 µM, 96h): 0/6
- Flat T-wave-like, number of observations/total well numbers (3 µM, 96h): 0/6
- cessation of beating, wells/total wells (3 µM, 96h): 6/6
- BR (beating rate), % change from baseline (3 µM, 2h): -2±3%
- Beating below threshold, number of observations/total well numbers (3 µM, 2h): 0/6
- Cessation of beating, number of observations/total well numbers (3 µM, 2h): 0/6
- EAD, number of observations/total well numbers (3 µM, 2h): 0/6
- FPD (field-potential duration), % change from baseline (3 µM, 2h): 3.6±1.9%
- FPDc (field-potential duration corrected by beat-rate), % change from baseline (3 µM, 2h): 2.7±2.1%
- Flat T-wave-like, number of observations/total well numbers (3 µM, 2h): 0/6
- BR (beating rate), % change from baseline (3 µM, 24h): -18±8 %
- Beating below threshold, number of observations/total well numbers (3 µM, 24h): 0/6
- Cessation of beating, number of observations/total well numbers (3 µM, 24h): 0/6
- EAD, number of observations/total well numbers (3 µM, 24h): 0/6
- FPD (field-potential duration), % change from baseline (3 µM, 24h): 23.4±11.8 %
- FPDc (field-potential duration corrected by beat-rate), % change from baseline (3 µM, 24h): 15.2±8%
- Flat T-wave-like, number of observations/total well numbers (3 µM, 24h): 0/6
- BR (beating rate), % change from baseline (3 µM, 48h): -30±8 %
- Beating below threshold, number of observations/total well numbers (3 µM, 48h): 0/6
- Cessation of beating, number of observations/total well numbers (3 µM, 48h): 0/6
- EAD, number of observations/total well numbers (3 µM, 48h): 0/6
- FPD (field-potential duration), % change from baseline (3 µM, 48h): 73.1±39.4 %
- FPDc (field-potential duration corrected by beat-rate), % change from baseline (3 µM, 48h): 52.6±30.7 %
- Flat T-wave-like, number of observations/total well numbers (3 µM, 48h): 0/6
- concentration from which prolongation of FPD and EAD-like events were induced (time- and dose-dependent): 1000 nM
